Source: patent US7332292B2, “Constitutively translocating cell line” (priority 2002, dated 2008)

System: angiotensin II type 1A receptor (AT1AR)
Assay: GRK2-C20 induced ligand-independent arrestinGFP translocation to the AT1AR in U2OS cells (INCell Analyzer)
Assay type: cell-based
Method: U2OS cells stably expressing arrestinGFP and the angiotensin II type 1A receptor (AT1 AR) were transiently transduced with human GRK2-C20 using a baculovirus expression system. A range of GRK2-C20 expression levels was obtained by using varying amounts (serial dilution) of the GRK2-C20 baculovirus.
To test whether the ligand-independent arrestinGFP translocation could be blocked by an antagonist/inverse agonist of the AT1AR, the cells were treated with losartan. Losartan is a nonpeptide molecule that functions as an antagonist/inverse agonist of the AT1AR. Losartan (1 μM final concentration) was added to the cells either immediately after transduction for an 18 hour incubation or 15 hours after transduction for a 3 hour incubation. At the end of the incubation, the cells were analyzed for arrestinGFP translocation using the INCell Analyzer system.

For CCCCc1nc(Cl)c(CO)n1Cc1ccc(-c2ccccc2-c2nnn[nH]2)cc1 [losartan, Losartan], which “effect on ligand-independent translocation of arrestinGFP to the AT1AR induced by expression of GRK2-C20” value (losartan 1 μM final concentration, 3 hour or 18 hour incubation, U2OS cells stably expressing arrestinGFP and AT1AR) is on record?
The value was “blocks the ligand-independent translocation of arrestinGFP to the AT1AR”.

What about the “inhibition of the ligand-independent translocation of arrestinGFP to the AT1AR” value (losartan 1 μM, 18 hour incubation, lower levels of GRK2-C20 expression (1:64, 1:128, and 1:256 dilutions of baculovirus)) of the same compound?
The value was “greater than 90%”.
